Source: PubChem BioAssay AID2423 (Broad Institute, 2010)
Results filed as inconclusive are left out. The source made the active and inactive calls. The rule behind the calls is not given here.

Test system: C. albicans CaCi-8 + fluconazole, Alamar Blue growth, 48 h
Assay: resistant C. albicans growth inhibition with fluconazole, dose response, CaCi-8 strain, Alamar Blue fluorescence (AID 2423)

Compound | EC50
O=C(N/N=C/c1ccc(O)cc1O)c1ccc(CN2C(=O)c3cccc4cccc2c34)cc1 | 709 nM
O=C(NC1CCCCC1)C(c1ccc(Cl)cc1)N(C(=O)c1cnccn1)c1ccc2c(c1)OCO2 (centres undefined) | 9720 nM
CCCCC(=O)NC(c1ccc(Cl)cc1)c1ccc2cccnc2c1O (centres undefined) | 502 nM
Cc1ccc([N+](=O)[O-])cc1-c1[nH]c(-c2ccc(O)c(O)c2)nc1-c1ccccc1 | > 15000 nM (inactive)
CCSc1nnc(-c2ccc(C)cc2)c2ccccc12 | 193 nM
O=C(c1ccc2c(c1)OCO2)N1CCC2(CC1)Oc1ccc(F)cc1C(=O)C21CC(c2cccnc2)=NO1 (centres undefined) | 402 nM
O=C(O)CSc1nc(-c2ccc(Cl)cc2)nc2c1oc1ccccc12 | 1510 nM
CC[n+]1c(/C=C/N(C)c2ccccc2)sc2ccc(Cl)cc21 | 3150 nM
NC(=O)c1c(NC(=O)c2ccco2)sc2c1CCC2 | 1060 nM
CCCCC(=O)NC(c1ccccc1)c1ccc2cccnc2c1O (centres undefined) | 752 nM
COc1ccc(-c2n[nH]c(C)c2-c2cnn(-c3ccccc3)c2)c(O)c1 | 9760 nM
S=c1[nH]nc(-c2cccs2)n1/N=C/c1cccs1 | 1080 nM
Clc1ccc(CONc2ncnc3nonc23)c(Cl)c1 | 328 nM
Cc1cc(C)nc(NS(=O)(=O)c2ccc(NC(=O)COc3ccccc3)cc2)n1 | > 15000 nM (inactive)
CC(=O)c1cc(C#N)c(N2CCCC2)nc1C | > 16000 nM (inactive)
O=S(=O)(Nc1nc(-c2ccccc2)cs1)c1cc(Cl)ccc1Cl | 2790 nM
Cc1cccc(C(=O)NC(=S)NNC(=O)Cc2ccccc2)c1 | 10600 nM
Cc1ccc(NCc2ccc(O)c3ncccc23)cc1C | 13400 nM
CC(=O)N(Cc1ccc(F)cc1)C1=C(NCCc2ccccc2)C(=O)c2ccccc2C1=O | 330 nM
NC(=S)n1[nH]c(-c2ccccc2)c(N=Nc2ccccc2C(=O)N2CCOCC2)c1=O | 8430 nM
Cc1ccc(C)c(NC(=S)NNC(=O)c2csc(C(C)C)c2)c1 | 1210 nM
COCCn1c(=O)[nH]c(=O)c2cc(C(=O)c3cc(Cl)ccc3O)cnc21 | 1280 nM

Compound | EC50
CNC(=O)COC(=O)c1c2c(nc3ccccc13)CCC2 | > 16000 nM (inactive)
Nc1nonc1C(=O)N/N=C/c1cc(Br)ccc1O | 9340 nM
CC(C)(C)c1ccc(C(=O)NC(=S)NNC(=O)COc2ccccc2)cc1 | 2110 nM
O=C1C2CCCN2C(c2ccccc2)N1c1ccccn1 (centres undefined) | > 16000 nM (inactive)
O=C(CCS(=O)(=O)c1ccc(F)cc1)Nc1nc(-c2ccncc2)cs1 | 1490 nM
O=C(Oc1cc2oc(=O)cc(-c3ccccc3)c2cc1Cl)C1CCCCC1 | 1200 nM
O=C(NCc1ccccc1)c1sc(=S)n2c1[nH]c(=O)c1ccccc12 | 948 nM
Cc1c(Cl)c([N+](=O)[O-])nn1Cc1ccc(C(=O)N/N=C\c2cc(Cl)ccc2O)o1 | 1030 nM
O=C(Nc1nnc(-c2ccncc2)o1)c1ccc2ccccc2c1 | 1440 nM
Cc1n[nH]c(C)c1CCNCc1ccc(OCC(O)CN2CCCCC2)cc1 (centres undefined) | > 15000 nM (inactive)
O=S1(=O)N=C(Nc2ccc(N3CCOCC3)cc2)c2ccccc21 | > 16000 nM (inactive)
C=CCN1C(=O)N/C(=C/c2ccc(N3CCOCC3)o2)C1=O | 796 nM
O=C(NCC(=O)N(CC1CCCO1)C(C(=O)NC1CCCCC1)c1ccccc1)c1ccco1 (centres undefined) | > 15000 nM (inactive)
Oc1cccc(C(Nc2nccs2)c2ccc3cccnc3c2O)c1 (centres undefined) | 1380 nM
O=C(Cc1ccc(O)cc1)N/N=C/c1cccnc1 | > 16000 nM (inactive)
Nc1c(S(=O)(=O)c2ccccc2)c2nc3ccccc3nc2n1CCN1CCOCC1 | 2970 nM
O=C1NC(=O)/C(=C/c2ccccc2Oc2ccc(Cl)cc2)S1 | > 16000 nM (inactive)
Cc1ccccc1/C=C1\SC(=S)N(/N=C/c2cc([N+](=O)[O-])ccc2O)C1=O | 4060 nM
CCOC(=O)c1ccccc1NC(=O)c1cccc([N+](=O)[O-])c1 | > 15000 nM (inactive)
NC(=O)c1c(NC(=O)c2ccncc2)sc2c1CCCC2 | 3450 nM
O=C(Nc1nnc(-c2ccccn2)o1)c1ccc(Br)cc1 | > 15000 nM (inactive)
COc1ccc(Cl)cc1C(Nc1cccnc1)c1ccc2cccnc2c1O (centres undefined) | 1020 nM

Compound | EC50
CC1(C)C(O)=C(c2nc3ccccc3[nH]2)C(=N)N1c1ccccc1 | 9820 nM
O=C1CN2C(=Nc3ccc(Cl)cc3C2c2ccccc2)CN1 (centres undefined) | 3300 nM
CNC(=O)c1ccc2c(c1)nnn2C | > 15000 nM (inactive)
N#Cc1cc(C#N)c(N2CCN(c3cccc(Cl)n3)CC2)nc1N | 1580 nM
CCCCCCn1c(=O)c(-c2ccccc2)c(O)c2ccccc21 | 9420 nM
O=C(NCC1CCCO1)c1cc2n(n1)C(C(F)(F)F)CC(c1ccc(Br)cc1)N2 (centres undefined) | 7570 nM
Cc1ccc(C)c(NC(=S)NNC(=O)c2csc3c2CCC(C)C3)c1 (centres undefined) | 1150 nM
Cc1ccc(-n2c(C)cc(/C([O-])=C(/C(=S)Nc3ccc(F)c(Cl)c3)[n+]3ccccc3)c2C)cc1 | > 16000 nM (inactive)
C=CCNC(=S)N/N=C/c1ccc(-c2ccc(OC)cc2)o1 | 4000 nM
Cn1c(NN)nc2sc3c(c2c1=O)CCC3 | 10100 nM
O=C(Nc1cccc(NC(=O)c2ccccc2Cl)c1)c1ccc([N+](=O)[O-])o1 | 716 nM
Cc1ccc(Sc2ncccc2C(=O)NCc2cc([N+](=O)[O-])ccc2O)c(C)c1 | > 15000 nM (inactive)
CCn1c(COc2ccc(=O)n(-c3ccccc3)n2)nnc1SCc1cccc(OC)c1 | > 16000 nM (inactive)
CCn1c(C)nc2cc(C(=O)N/N=C/c3ccc(O)c(O)c3O)ccc21 | 989 nM
CC1(C)CC(N2CCN(Cc3ccccc3)CC2)=CC(=[N+]2CCCCC2)C1 | 3350 nM
O=C1C(Nc2ccccc2)=C/C(=N/S(=O)(=O)c2cccs2)c2ccccc21 | 3340 nM
O=C(CSCc1ccc(Cl)cc1)Nc1cc([N+](=O)[O-])ccc1O | > 15000 nM (inactive)
Cc1cc(NC(c2ccc(Cl)cc2)c2ccc3cccnc3c2O)no1 (centres undefined) | 598 nM
CCCCNC(=O)/C(=C\c1ccc([N+](=O)[O-])o1)NC(=O)c1ccccc1 | > 15000 nM (inactive)
Cc1ccc(NC(=O)c2ccc([N+](=O)[O-])o2)cc1C | 1130 nM
Oc1c(CN2CCN(c3ccc(F)cc3)CC2)cc(Cl)c2cccnc12 | 572 nM
Cn1c(=O)n(CC#N)c2ccccc21 | 14800 nM

Compound | EC50
O=[N+]([O-])c1ccc(O)c(P(=O)(c2ccccc2)c2ccccc2)c1 | > 15000 nM (inactive)
CCc1nnc(NC(=O)CSc2nnc(CNc3cccc(C)c3)n2-c2ccccc2)s1 | > 15000 nM (inactive)
CC(=O)Nc1ncnc2c1c(-c1ccc(Cl)cc1)nn2C(C)(C)C | 1330 nM
NCC(c1ccc(Cl)cc1Cl)c1c[nH]c2ccccc12 (centres undefined) | > 16000 nM (inactive)
O=C(/C=C/c1cccc(Cl)c1)c1nc2ccccc2[nH]1 | 2580 nM
O=C(Nc1cccc(-c2nc3ccccc3s2)c1)c1cc(-n2cnnc2)ccc1Cl | 1510 nM
CC(=O)NC(c1cccs1)c1cc([N+](=O)[O-])c2cccnc2c1O (centres undefined) | 1080 nM
NS(=O)(=O)c1cccc(NC(=S)NCc2ccc3c(c2)OCO3)c1 | > 16000 nM (inactive)
COc1ccccc1C(=O)NNC(=S)NC(=O)c1cc(OC)c(OC)c(OC)c1 | 9620 nM
O=C(CSc1ccc(Cl)cc1)Nc1nnc(-c2ccco2)o1 | 2720 nM
O=C(NNC(=O)c1cc2ccccc2cc1O)c1cccs1 | > 15000 nM (inactive)
Cc1ccc2nc(N3C(=O)C(O)=C(C(=O)c4ccco4)C3c3ccc(C)o3)sc2c1 (centres undefined) | 131 nM
Cc1ccc(-c2nnn(CC(=O)N(Cc3ccco3)C(C(=O)NC(C)(C)C)c3ccncc3)n2)o1 (centres undefined) | > 15000 nM (inactive)
O=C(CCc1ccccc1)NNC(=S)NC(=O)c1ccc(Cl)cc1 | 1990 nM
COC(=O)c1c[nH]n2c(=O)c(Cc3ccc(F)cc3Cl)c(C)nc12 | 755 nM
O=S(=O)(Cc1ccc(Cl)cc1)N1CCN(Cc2ccccc2)CC1 | > 16000 nM (inactive)
N#C/C(=N\Nc1cccc([N+](=O)[O-])c1)C(=O)c1ccc(Br)cc1 | 5560 nM
COc1ccc(-c2nnc(NC(=O)c3ccc(S(=O)(=O)N4CCc5ccccc5C4)cc3)o2)cc1 | 747 nM
Cc1ccc(C)c(OC(=O)c2cncc(Br)c2)c1 | > 16000 nM (inactive)
O=Nc1c(O)n(Cc2cccc(C(F)(F)F)c2)c2ccccc12 | 932 nM
O=C(N/N=C/c1ccc(Cl)cc1Cl)Nc1ccccc1 | > 16000 nM (inactive)
O=C1C2CCN(CC2)C1Cc1ccc(OCc2ccccc2)cc1 (centres undefined) | 2190 nM

Compound | EC50
O=c1[nH]c(=S)[nH]nc1Cc1ccc(Cl)c(Cl)c1 | 1400 nM
Cc1ccc(/C=C2\SC(=S)N(/N=C/c3cc([N+](=O)[O-])ccc3O)C2=O)o1 | 3330 nM
O=c1c2ccccc2nc(-c2ccc([N+](=O)[O-])cc2)n1O | 6520 nM
COc1ccc(/C=N/OCC(=O)Nc2nc3ccccc3s2)cc1 | 3050 nM
COc1ccc(OC)c(NC(=O)C(=O)/C=C(\O)c2cc(OC)ccc2OC)c1 | > 15000 nM (inactive)
C[C@H]1CCC/C=C/C2C[C@H](O)CC2[C@H](O)/C=C/C(=O)O1 (some centres undefined) | 2060 nM
CCOC(=O)N=Nc1c2ccccc2c2nc3no[nH]c3nc12 | > 15000 nM (inactive)
O=C(Nc1nnc(SCc2ccc(Cl)cc2)s1)c1cnccn1 | 1550 nM
CC(C)n1c(N2CCN(C(=O)Nc3ccc(Cl)cc3)CC2)nc2ccccc21 | > 15000 nM (inactive)
C/C(CC(C)(C)C1CCCCC1)=N\NC(N)=S | > 16000 nM (inactive)
Cc1cc(NC(=O)c2cccc(Oc3ccccc3)c2)n[nH]1 | 1570 nM
O=c1nc(/C=C/c2cc([N+](=O)[O-])ccc2Cl)cc(C(F)(F)F)[nH]1 | 946 nM
Cc1ccc(-c2nc(-c3cccnc3)no2)c(C)c1 | 10500 nM
CC1CCN(Cc2c(C(=O)N/N=C/c3cc(Br)ccc3O)nnn2-c2nonc2N)CC1 | 908 nM
COCCCN1C(=O)C(=O)/C(=C(/O)c2ccc(OCC(C)C)cc2C)C1c1cccnc1 (centres undefined) | > 15000 nM (inactive)
O=C(c1ccc(C(=O)N2CCN(c3ccccc3F)CC2)nc1)N1CCN(c2ccccc2F)CC1 | > 16000 nM (inactive)
CCN(CC)c1ccc(N=Cc2ccc(N(CC)CC)cc2O)cc1 | 11100 nM
O=C(Nc1cccc2ccccc12)c1ccc([N+](=O)[O-])o1 | 726 nM
CCN(CC)c1ccc(/C=N/NC(=O)c2ccco2)c(O)c1 | 2420 nM
O=[N+]([O-])c1nn(-c2ccc(Cl)cc2)n(O)c1=NCc1cccnc1 | 1830 nM
CC[n+]1c(/C=C2\Sc3ccccc3N2C)ccc2cccc(C)c21 | < 120 nM
